Measured values taken from patent publication US7132563B1, “Convenient method for the preparation of no-carrier-added O-(2-[18F]fluoroethyl)-L-tyrosine)” (Institute of Nuclear Energy Research, priority 2005, dated 2006).
Where “and” joins values, the source holds several entries; their conditions need not be identical. Identical values can stand only once.

Assays:
[1] = tested on: F98 glioma implanted Fischer 344 rat; experiment: Biological distribution of L-[^18F]FET in F98 glioma-bearing Fischer 344 rat; format: in vivo
Experimental: (1) Total of twenty Fischer 344 male rats will be assessed in vivo for L-[^18F]FET biological distribution. Use the intersection of bregma and sagittal midlines as original point; so as to implant F98 glioma cells (1×10^5 cells/10 μl) at the place of 3 mm left 5 mm upward and 5 mm depth. Biological distribution test will be carry out after 11˜12 days of brain tumor implantation.
(2) Different volume of radioactive level is injected, injected volume of L-[^18F]FET for each Fischer 344 rat is 200˜300 μl, that is approximately 200˜250 μCi of activity.
(3) Inject L-[^18F]FET via tail vein, and rats are sacrificed at 15, 30, 60, 90 and 120 minutes.
(4) Dissection of rat organ is right after sacrifice. Scissors off chest and abdomen fur alone the line from genital pore upward to jowl. Next, scissors off chest above xiphisternal transversely. Open ribs aside, take blood sample from venous sinus with 0.5 ml syringe. Withdraw the needle after depletion of blood and collect the extracted heart. Collect the lung lobes with forcep.
(5) Scissors off abdominal muscle from genital pore upward to the position below xiphisternal longitudinally. Then, scissors off the opening of upper and lower edges transversely, everts muscle layers to both sides and expose celiac organs. Search for bladder in lower abdomen and sequentially removes stomach, liver, spleen, small intestine, large intestine, kidney, and muscle.
(6) After turn over the rat, scissors off fur of shoulder and removes exposed subcutaneous tumor. Cut scalp upward at lower margin of cranium above foramen magnum and expose cranial bone. Then, cut cervical portion transversely at foramen magnum and expose spinal cord. Inserts foramen magnum with scissors' tip while attach the inner surface of cranium; such that scissors' tip can reach the frontal edge of cranial cavity in order to scissor off the center of cranium. Use scissors to open cranium aside and expose brain tissue. Alone skull base insert scissors deeply to the front edge of cranial cavity in order to remove left-brain, right-brain and brain tumor.
(7) Weight all organ samples; measure radioactivity with γ-counter and convert to % ID/g (% injection dose/g organ) of each organ for estimate the biological distribution of L-[^18F]FET. […] According to reports, L-[^18F]FET can pass through blood brain barrier (BBB) and enter brain by way of L amino acid transporter system. […] Tumor- to-normal brain ratio of L-[^18F]FET at 15, 30, 60, 90 and 120 minutes are 1.54, 1.74, 3.16, 3.14 and 2.34 respectively. […] Some papers reported that patient with tumor observes no significant accumulation of radioactivity in pancreas when use positron emission tomography (PET), the discrepant results were assumed that human and rat have different metabolic pathway. Furthermore, biological distribution study of L-[^18F]FET indicated radioactivity accumulation in tumor cells (expressed by % ID/g) are much higher than other normal organs (left-brain, small intestine, kidney, liver, blood and muscle) except pancreas, this means L-[^18F]FET can be a potential PET agent for substantially different site of tumor.

F98 glioma cells = experiment: L-[^18F]FET uptake by F98 glioma tumor cells; format: cell-based, rat; details: for uptake ratio (radioactivity uptake of cells / total added radioactivity): 10 μCi/well
Experimental: (1) In five six-well plates, put 1×10^6 F98 glioma cells and 2 ml DMEM (1 g glucose/l) into three wells.
(2) Total of five time points (2, 5, 10, 30 minute and 1 hour) in this experiment and each time point use one six-well plate.
(3) Predetermined activity of L-[^18F]FET or [^18F]FDG (10 μCi/well) is added into each well during the experiment. Radioactivity uptake of cells divided by total added radioactivity can obtain its calculated uptake ratio.
F98 glioma cells intake L-[^18F]FET rapidly and maximal accumulation will reach after 10 minutes (uptake ratio 0.47%). As cell cannot metabolize L-[^18F]FET, therefore, the rate of L-[^18F]FET transportation by the cells become balance after ten minutes when add L-[^18F]FET; the accumulation of L-[^18F]FET in glioma cells only slightly decrease after 1 hour (uptake ratio 0.41%).

[2] = tested on: F98 glioma implanted Fischer 344 rat; experiment: PET and microPET imaging of tumor-bearing rat with L-[^18F]FET; format: in vivo; details: 400 μCi via tail vein
Experimental: (1) Positron emission tomography (PET) studies of tumor-bearing rat (Fischer 344) with L-[^18F]FET will be carry out after 11˜12 days of brain tumor (F98 glioma) implantation.
(2) Producing processes of L-[^18F]FET as described above, and estimates its administrating amount of agent according to the level of radioactivity.
(3) At the very beginning, inject 400 μCi of L-[^18F]FET into tail vein. Temporarily anesthetize rats with ether at time of 0.5, 1, 1.5 and 2 hours. Fix rat on transparent acrylic board and place on PET table after securing stretched limbs on the board. Continuously anesthetize rats with isoflurane gas. Align implant portion of head with PET machine as to assure the fixation of original imaging position.
(4) Adjust background value by blank scan before PET imaging.
(5) Use […] radioactive source proceed transmission scan for adjust tissue attenuation.
(6) Commence PET and microPET imaging. Perform image processing after reconstruction of acquired image data; the coronal and cross section scans show in FIGS. 3 and 9. […] In contrast to tumor site, normal tissue have lower radioactivity accumulation of L-[^18F]FET because of lower amino acid requirement.

[3] = 15 min after tail vein injection, tumor-bearing rat
[4] = 30 min after tail vein injection, tumor-bearing rat
[5] = 60 min after tail vein injection, tumor-bearing rat
[6] = 90 min after tail vein injection, tumor-bearing rat
[7] = 120 min after tail vein injection, tumor-bearing rat

N[C@@H](Cc1ccc(OCC[18F])cc1)C(=O)O [L-[^18F]FET, O-(2-[^18F]fluoroethyl)-L-Tyrosine]
accumulated radioactivity in Blood [1, 3]: 0.41 ± 0.03 % ID/g | accumulated radioactivity in Heart [1, 3]: 0.30 ± 0.06 % ID/g | accumulated radioactivity in Kidney [1, 3]: 0.33 ± 0.01 % ID/g | accumulated radioactivity in Large intestine [1, 3]: 0.21 ± 0.01 % ID/g | accumulated radioactivity in Left brain [1, 3]: 0.08 ± 0.01 % ID/g | accumulated radioactivity in Liver [1, 3]: 0.27 ± 0.06 % ID/g | accumulated radioactivity in Lung [1, 3]: 0.32 ± 0.05 % ID/g | accumulated radioactivity in Muscle [1, 3]: 0.19 ± 0.03 % ID/g | accumulated radioactivity in Pancreas [1, 3]: 0.98 % ID/g and 0.98 ± 0.25 % ID/g | accumulated radioactivity in Right brain [1, 3]: 0.07 ± 0.02 % ID/g | accumulated radioactivity in Small intestine [1, 3]: 0.23 ± 0.11 % ID/g | accumulated radioactivity in Spleen [1, 3]: 0.31 ± 0.08 % ID/g | accumulated radioactivity in Stomach [1, 3]: 0.24 ± 0.05 % ID/g | accumulated radioactivity in Tumor [1, 3]: 0.12 ± 0.02 % ID/g | Tumor-to-normal brain ratio ([1]; 15 minutes after injection): 1.54 | accumulated radioactivity in Blood [1, 4]: 0.39 ± 0.03 % ID/g | accumulated radioactivity in Heart [1, 4]: 0.40 ± 0.07 % ID/g | accumulated radioactivity in Kidney [1, 4]: 0.34 ± 0.06 % ID/g | accumulated radioactivity in Large intestine [1, 4]: 0.28 ± 0.05 % ID/g | accumulated radioactivity in Left brain [1, 4]: 0.25 ± 0.05 % ID/g | accumulated radioactivity in Liver [1, 4]: 0.37 ± 0.07 % ID/g | accumulated radioactivity in Lung [1, 4]: 0.43 ± 0.09 % ID/g | accumulated radioactivity in Muscle [1, 4]: 0.28 ± 0.01 % ID/g | accumulated radioactivity in Pancreas [1, 4]: 1.76 % ID/g and 1.76 ± 0.16 % ID/g | accumulated radioactivity in Right brain [1, 4]: 0.21 ± 0.03 % ID/g | accumulated radioactivity in Small intestine [1, 4]: 0.52 ± 0.26 % ID/g | accumulated radioactivity in Spleen [1, 4]: 0.50 ± 0.11 % ID/g | accumulated radioactivity in Stomach [1, 4]: 0.36 ± 0.06 % ID/g | accumulated radioactivity in Tumor [1, 4]: 0.43 ± 0.10 % ID/g | Tumor-to-normal brain ratio ([1]; 30 minutes after injection): 1.74 | accumulated radioactivity in Blood [1, 5]: 0.38 ± 0.00 % ID/g | accumulated radioactivity in Heart [1, 5]: 0.43 ± 0.07 % ID/g | accumulated radioactivity in Kidney [1, 5]: 0.41 ± 0.08 % ID/g | accumulated radioactivity in Large intestine [1, 5]: 0.42 ± 0.06 % ID/g | accumulated radioactivity in Left brain [1, 5]: 0.40 ± 0.06 % ID/g | accumulated radioactivity in Liver [1, 5]: 0.41 ± 0.06 % ID/g | accumulated radioactivity in Lung [1, 5]: 0.43 ± 0.07 % ID/g | accumulated radioactivity in Muscle [1, 5]: 0.36 ± 0.04 % ID/g | accumulated radioactivity in Pancreas [1, 5]: 2.55 % ID/g and 2.55 ± 0.31 % ID/g | accumulated radioactivity in Right brain [1, 5]: 0.34 ± 0.03 % ID/g | accumulated radioactivity in Small intestine [1, 5]: 0.65 ± 0.04 % ID/g | accumulated radioactivity in Spleen [1, 5]: 0.51 ± 0.09 % ID/g | accumulated radioactivity in Stomach [1, 5]: 0.40 ± 0.05 % ID/g | accumulated radioactivity in Tumor [1, 5]: 1.26 ± 0.22 % ID/g | Tumor-to-normal brain ratio ([1]; 60 minutes after injection): 3.16 | accumulated radioactivity in Blood [1, 6]: 0.37 ± 0.03 % ID/g | accumulated radioactivity in Heart [1, 6]: 0.47 ± 0.02 % ID/g | accumulated radioactivity in Kidney [1, 6]: 0.42 ± 0.07 % ID/g | accumulated radioactivity in Large intestine [1, 6]: 0.46 ± 0.04 % ID/g | accumulated radioactivity in Left brain [1, 6]: 0.48 ± 0.14 % ID/g | accumulated radioactivity in Liver [1, 6]: 0.49 ± 0.01 % ID/g | accumulated radioactivity in Lung [1, 6]: 0.45 ± 0.02 % ID/g | accumulated radioactivity in Muscle [1, 6]: 0.44 ± 0.10 % ID/g | accumulated radioactivity in Pancreas [1, 6]: 2.28 % ID/g and 2.28 ± 0.76 % ID/g | accumulated radioactivity in Right brain [1, 6]: 0.48 ± 0.08 % ID/g | accumulated radioactivity in Small intestine [1, 6]: 0.43 ± 0.11 % ID/g | accumulated radioactivity in Spleen [1, 6]: 0.48 ± 0.11 % ID/g | accumulated radioactivity in Stomach [1, 6]: 0.43 ± 0.04 % ID/g | accumulated radioactivity in Tumor [1, 6]: 1.49 % ID/g and 1.49 ± 0.40 % ID/g | Tumor-to-normal brain ratio ([1]; 90 minutes after injection): 3.14 | maximum accumulation in normal brain tissue ([1]; 90 minutes after injection, tumor-bearing rat): 0.48 % ID/g | accumulated radioactivity in Blood [1, 7]: 0.36 ± 0.03 % ID/g | accumulated radioactivity in Heart [1, 7]: 0.43 ± 0.07 % ID/g | accumulated radioactivity in Kidney [1, 7]: 0.41 ± 0.09 % ID/g | accumulated radioactivity in Large intestine [1, 7]: 0.38 ± 0.09 % ID/g | accumulated radioactivity in Left brain [1, 7]: 0.43 ± 0.09 % ID/g | accumulated radioactivity in Liver [1, 7]: 0.41 ± 0.09 % ID/g | accumulated radioactivity in Lung [1, 7]: 0.40 ± 0.06 % ID/g | accumulated radioactivity in Muscle [1, 7]: 0.37 ± 0.10 % ID/g | accumulated radioactivity in Pancreas [1, 7]: 2.24 % ID/g and 2.24 ± 0.72 % ID/g | accumulated radioactivity in Right brain [1, 7]: 0.34 ± 0.04 % ID/g | accumulated radioactivity in Small intestine [1, 7]: 0.41 ± 0.09 % ID/g | accumulated radioactivity in Spleen [1, 7]: 0.47 ± 0.04 % ID/g | accumulated radioactivity in Stomach [1, 7]: 0.41 ± 0.03 % ID/g | accumulated radioactivity in Tumor [1, 7]: 1.02 ± 0.16 % ID/g | Tumor-to-normal brain ratio ([1]; 120 minutes after injection): 2.34 | time of maximum accumulation in brain tumor and normal brain tissue ([1]; biological distribution, tumor-bearing rat): 90 min | radioactivity in urine sample (excretion via urine) ([1]; tumor-bearing rat): high level of radioactivity | time to maximal accumulation in cells (F98 glioma cells): 10 min | uptake ratio (radioactivity uptake of cells / total added radioactivity) (F98 glioma cells; after 10 minutes (maximal accumulation)): 0.47% | uptake ratio (radioactivity uptake of cells / total added radioactivity) (F98 glioma cells; after 1 hour): 0.41% | radioactivity accumulation in brain tumor on PET imaging ([2]; F98 glioma Fischer 344 rat): significant radioactivity accumulation in brain tumor | time of maximum uptake in brain tumor on PET imaging ([2]; imaging at 0.5, 1, 1.5 and 2 hours): 90 min
